Assay results: article PMC8469169, “Design, Synthesis, and Cytotoxicity Assessment of [^64Cu]Cu-NOTA-Terpyridine Platinum Conjugate: A Novel Chemoradiotherapeutic Agent with Flexible Linker” (Nanomaterials, 2021)
Where “and” joins values, the source holds several entries; their conditions need not be identical. Identical values can stand only once. Like-named read-outs stand apart in the source and are kept apart here.

Key:
[1] = test system: GM05757 cells; experiment: PrestoBlue (resazurin) cytotoxicity assay in GM05757 normal fibroblasts
Description: Human CRC cells HCT116 obtained from ATCC were cultured in Eagle’s minimal essential medium (EMEM), while Dulbecco’s modified Eagle medium (DMEM) was used for the normal fibroblast cell line GM05757 purchased from Coriell Institute. These culture media were supplemented with 10% FBS, 26.2 mM sodium bicarbonate, 2 mM L-glutamine, and a mix of penicillin (100 UI/mL) and streptomycin (100 μg/mL). Cells were incubated at 37 °C in a humidified environment with 5% CO2.
Cytotoxic activity was measured with the PrestoBlue method, which consists of a Resazurin-based metabolic assay. Briefly, HCT116 cells (2 × 10^4 cells per well) and GM05757 cells (5 × 10^3 cells per well) were seeded in a 96-well plate and incubated for 24 h. Then, the cells were treated with the Pt drugs at concentrations ranging from 0 to 500 µM for a subsequent 24, 48, and 72 h. […] The final concentration of DMSO was less than 1%. Then, the media were removed, and the cells were washed with warm PBS and exposed with PrestoBlue reagent for an incubation time of 20 min. Changes in cell viability were recorded by fluorescence (λex = 570 nm; λem = 610 nm). […] The fluorescence values measured for blank groups were subtracted from those obtained from the treated and untreated cells.

[2] = test system: HCT116 cells; experiment: Cellular uptake and internalization in HCT116 cells (gamma counting); assay type: cell-based, human
Description: (§1) HCT116 cells (2 × 10^5 per well) were seeded in 12-well plates for 48 h in EMEM medium completed with 10% FBS at 37 °C until 80% confluence. Cells were washed twice with PBS, and then [^64Cu]Cu-NOTA-C3-TP (0.1 MBq, 50 µL) in EMEM completed medium was added and incubated from 15 min to 72 h to measure cellular uptake and internalization. At each time point, the radioactive media was removed, and cells were washed thrice with cold PBS. To measure the net cellular uptake or internalized fraction, surface-bound Pt drugs were removed by treating with 50 mM glycine in PBS pH 2.2 for 10 min, which was followed by a second cold PBS wash. Then, cells were harvested through trypsinization and counted with a hemocytometer. The radioactivity was measured in a gamma counter (HIDEX Automatic Gamma Counter 2014). The results were expressed as a percentage of added dose (AD) retained per 10^6 cells (%AD/10^6 cells). Parallel experiments were carried out at 4 °C to assess internalization inhibition and surface-bound fraction. For efflux studies, HCT116 cells were incubated for 1 h with 0.1 MBq of [^64Cu]Cu-NOTA-C3-TP. Then, the cells were washed with PBS and fresh culture medium was added. After 0 to 72 h, the medium was removed, and the cells were washed thrice with PBS. Finally, the cells were harvested, and radioactivity was counted with the gamma counter. The results were expressed as percentage of total activity retained by 10^6 cells relative to baseline at 0 min.

[3] = Pt release at physiological pH by mass spectroscopy; assay type: physicochemical; settings: physiological pH 7.2, after 72 h
[4] = test system: HCT116 cells; experiment: Efflux assay in HCT116 cells; assay type: cell-based, human
Description: as §1, with “For efflux studies, HCT116 cells were incubated for 1 h with 0.1 MBq of [^64Cu]Cu-NOTA-C3-TP. Then, the cells were washed with PBS and fresh culture medium was added. After 0 to 72 h, the medium was removed, and the cells were washed thrice with PBS.” left out
For efflux studies, we followed the standard protocol of Fournier et al.. […] The activity retained by the cells was measured from 0 to 72 h post administration.

[5] = test system: HCT116 cells; experiment: PrestoBlue (resazurin) cytotoxicity assay in HCT116 cells; assay type: cell-based, human
Description: Human CRC cells HCT116 obtained from ATCC were cultured in Eagle’s minimal essential medium (EMEM), while Dulbecco’s modified Eagle medium (DMEM) was used for the normal fibroblast cell line GM05757 purchased from Coriell Institute. […] Cells were incubated at 37 °C in a humidified environment with 5% CO2.
Cytotoxic activity was measured with the PrestoBlue method, which consists of a Resazurin-based metabolic assay. […] The final concentration of DMSO was less than 1%. Then, the media were removed, and the cells were washed with warm PBS and exposed with PrestoBlue reagent for an incubation time of 20 min. Changes in cell viability were recorded by fluorescence (λex = 570 nm; λem = 610 nm). […] The fluorescence values measured for blank groups were subtracted from those obtained from the treated and untreated cells.

[6] = test system: GM05757 cells; settings: high AMA
Description: For extraction of HCT116 and GM05757 cell nucleus and cytoplasm, we followed a previously reported procedure. After treatment of HCT116 cells with 1MBq of [^64Cu]Cu-NOTA-C3-TP for 24, 48 and 72 h, CSK buffer (0.5% Triton X-100, 300 mM sucrose, 100 mM NaCl, 1 mM ethylenediaminetetraacetic acid (EDTA), 2 mM MgCl2, and 10 mM HEPES, pH 6.8) were employed for nuclear extraction. After 5 min centrifugation, supernatant was separated, and the retained activity in nuclear plates was counted by a gamma counter (HIDEX Automatic Gamma Counter 2014).

[7] = Plasma stability by radio-TLC; assay type: in vitro ADME, mouse; settings: room temperature; radio-iTLC; free 64Cu or fragments
Description: Plasma stability of the compound was assessed by incubating [^64Cu]Cu-NOTA-C3-TP in mouse plasma for 72 h at room temperature. Radio-TLC on C18 plates conducted on 0.1 M sodium citrate buffer at pH 5.5, as a developing solvent, was used to detect free ^64Cu. [^64Cu]Cu-NOTA-C3-TP and free [^64Cu]Cu(OAc)2 were employed as control standards.

[8] = test system: HCT116 cells; experiment: Subcellular (nucleus/cytoplasm) localization in HCT116 cells; assay type: cell-based, human; settings: for Nucleus accumulation HCT116 versus GM05757 (fold reduction in GM05757) / Cytoplasmic distribution / Nucleus localization: high AMA; for Cytoplasmic distribution / Nucleus localization: HCT116
Description: For extraction of HCT116 and GM05757 cell nucleus and cytoplasm, we followed a previously reported procedure [28, 31]. After treatment of HCT116 cells with 1MBq of [^64Cu]Cu-NOTA-C3-TP for 24, 48 and 72 h, CSK buffer (0.5% Triton X-100, 300 mM sucrose, 100 mM NaCl, 1 mM ethylenediaminetetraacetic acid (EDTA), 2 mM MgCl2, and 10 mM HEPES, pH 6.8) were employed for nuclear extraction. After 5 min centrifugation, supernatant was separated, and the retained activity in nuclear plates was counted by a gamma counter (HIDEX Automatic Gamma Counter 2014).

[9] = test system: HCT116 cells; settings: cited from earlier work
[10] = HCT116, 37 °C, 24 h, % of total activity/10^6 cells
[11] = HCT116, 24 h, low AMA 0.8 to 4.0 MBq/nmol
[12] = read-out: EC50 GM05757 24 h, 24 h incubation
[13] = read-out: EC50 GM05757 48 h, 48 h incubation
[14] = read-out: EC50 GM05757 72 h, 72 h incubation
[15] = 24 h incubation, read-out: EC50 HCT116 24 h
[16] = 48 h incubation, read-out: EC50 HCT116 48 h
[17] = 72 h incubation, read-out: EC50 HCT116 72 h

O=C([O-])CN1CCN(CCCOc2cc3[n+]4c(c2)-c2cccc[n+]2[Pt-2]4([Cl])[n+]2ccccc2-3)CCN(CC(=O)[O-])CC1.[64Cu+2] [[^64Cu]Cu-NOTA-C3-TP]
Cytotoxic activity on GM05757 lower than on HCT116 (fold) ([1]; low AMA, 24 h): at least 3.4 fold | EC50 ([1]; read-out: EC50 GM05757 24 h, 24 h, high AMA ≈120 MBq/nmol): > 0.066 µM | EC50 ([1]; read-out: EC50 GM05757 24 h, 24 h, low AMA 0.8 to 4.0 MBq/nmol): > 200 µM | EC50 ([1]; read-out: EC50 GM05757 48 h, 48 h, high AMA ≈120 MBq/nmol): 0.025 ± 0.005 µM | EC50 ([1]; read-out: EC50 GM05757 72 h, 72 h, high AMA ≈120 MBq/nmol): 0.019 ± 0.004 µM | EC50 ([1]; read-out: EC50 GM05757 72 h, 72 h, low AMA 0.8 to 4.0 MBq/nmol): 12 ± 2 µM | Internalization in HCT116 fold higher than in GM05757 ([2]; 24 h, 37 °C): 3.1 fold | Internalization in HCT116 fold higher than in GM05757 ([2]; 48 h, 37 °C): 1.8 fold | Internalization in HCT116 fold higher than in GM05757 ([2]; 72 h, 37 °C): 2.1 fold | Uptake at 4 °C (passive accumulation), share of conjugate incubated ([2]; HCT116, 4 °C): less than 1% | Cell-associated fraction higher than internalized fraction ([2]; HCT116, 37 °C): 2 fold | Incubation time of maximum accumulation ([2]; HCT116, 37 °C): 24 h | Internalized fraction ([2]; HCT116, 37 °C, 15 min incubation, % of total activity/10^6 cells): 0.04 ± 0.02% | Cell-associated fraction (maximum) [2, 10]: 40.0 ± 2.8% | Internalized fraction (maximum) [2, 10]: 18.7 ± 2.8% | Cellular accumulation times larger than cisplatin ([2]; HCT116, 24 h): 14.4 times | Cellular accumulation (maximum) ([2]; HCT116, 24 h incubation, low AMA): 72 ng of Pt/10^6 HCT116 cells | Uptake at 4 °C lower than at 37 °C ([2]; HCT116, passive accumulation): ~ 30 fold | Pt released [3]: not seen | Conjugate retained by cells ([4]; 72 h post administration): more than 40% | Conjugate eliminated (efflux) ([4]; first 6 h after 1 h incubation): About 42% | Viability of HCT116 cells ([5]; 5 MBq, low AMA, 24 h incubation): 22% | Viability of HCT116 cells ([5]; 8 MBq, low AMA, 24 h incubation): 17% | EC50 ([5]; 24 h, high AMA ≈120 MBq/nmol, read-out: EC50 HCT116 24 h): 0.017 ± 0.004 µM | EC50 ([5]; 24 h, low AMA 0.8 to 4.0 MBq/nmol, read-out: EC50 HCT116 24 h): 59 ± 3 µM | EC50 ([5]; 48 h, high AMA ≈120 MBq/nmol, read-out: EC50 HCT116 48 h): 0.012 ± 0.006 µM | EC50 ([5]; 48 h, low AMA 0.8 to 4.0 MBq/nmol, read-out: EC50 HCT116 48 h): 9 ± 2 µM | EC50 ([5]; 72 h, high AMA ≈120 MBq/nmol, read-out: EC50 HCT116 72 h): 0.006 ± 0.002 µM | EC50 ([5]; 72 h, low AMA 0.8 to 4.0 MBq/nmol, read-out: EC50 HCT116 72 h): < 5 µM | Fold more activity relative to [NatCu]Cu-NOTA-C3-TP and NOTA-C3-TP ([5]; HCT116, 48 and 72 h, low AMA): 5–66 fold | Improvement of cytotoxicity with respect to [NatCu]Cu-NOTA-C3-TP ([5]; HCT116, 24 h, high AMA ≈120 MBq/nmol): ~17,000 fold | Times more active than NOTA-C3-TP [5, 11]: 12 times | Times more active than [NatCu]Cu-NOTA-C3-TP [5, 11]: 5 times | Times more active than oxaliplatin [5, 11]: 3.4 times | Improvement of cytotoxicity with respect to [NatCu]Cu-NOTA-C3-TP ([5]; HCT116, 72 h, high AMA ≈120 MBq/nmol): > 55,000 fold and 55,000 fold | Selectivity toward cancer cells ([5]; HCT116 vs GM05757, 24 h): 3.9 | Times higher efficiency toward HCT116 relative to GM05757 ([5]; high AMA, 24 to 72 h): 2–4 times | Cytoplasmic distribution ([6]; 24 h): 46 ± 6% | Nucleus localization ([6]; 24 h): 1.5 ± 0.2% | Cytoplasmic distribution ([6]; 48 h): 53 ± 6.5% | Nucleus localization ([6]; 48 h): 3 ± 0.4% | Cytoplasmic distribution ([6]; 72 h): 58.5 ± 8.3% | Nucleus localization ([6]; 72 h): 3 ± 0.1% | Stability in mouse plasma [7]: stable up to 72 h | Increase in HCT116 nucleus uptake relative to [64Cu]Cu(OAc)2 ([8]; 24 h): 2.8 fold | Nucleus accumulation HCT116 versus GM05757 (fold reduction in GM05757) ([8]; 24 h): 5.7 fold | Increase in HCT116 nucleus uptake relative to [64Cu]Cu(OAc)2 ([8]; 48 h): 4.9 fold | Nucleus accumulation HCT116 versus GM05757 (fold reduction in GM05757) ([8]; 48 h): 4.4 fold | Increase in HCT116 nucleus uptake relative to [64Cu]Cu(OAc)2 ([8]; 72 h): 3.7 fold | Nucleus accumulation HCT116 versus GM05757 (fold reduction in GM05757) ([8]; 72 h): 4.1 fold | Cytoplasmic distribution ([8]; 24 h): 76 ± 7.3% | Nucleus localization ([8]; 24 h): 8.6 ± 3% and 8.6% | Cytoplasmic distribution ([8]; 48 h): 61 ± 11% | Nucleus localization ([8]; 48 h): 13.4 ± 4% | Cytoplasmic distribution ([8]; 72 h): 61 ± 8.3% | Nucleus localization ([8]; 72 h): 12.3 ± 1%

F[P-](F)(F)(F)(F)F.O=C(O)CN1CCN(CCCOc2cc3[n+]4c(c2)-c2cccc[n+]2[Pt-2]4([Cl])[n+]2ccccc2-3)CCN(CC(=O)O)CC1 [NOTA-C3-TP]
EC50 [1, 12]: 504 ± 4 µM | EC50 [1, 13]: 202 ± 5 µM | EC50 [1, 14]: 51 ± 3 µM | EC50 [5, 15]: > 700 µM | EC50 [5, 16]: 63 ± 2 µM | EC50 [5, 17]: 24 ± 1 µM

O=C1[O][Pt]2([NH][C@@H]3CCCC[C@H]3[NH]2)[O]C1=O [Oxaliplatin, reference compound]
EC50 [1, 12]: > 200 µM | EC50 [1, 13]: 165 ± 9 µM | EC50 [1, 14]: 65 ± 3 µM | EC50 [5, 15]: > 200 µM | EC50 [5, 16]: 64 ± 1 µM | EC50 [5, 17]: 16 ± 4 µM

N.N.[Cl][Pt][Cl] [Cisplatin, reference compound]
EC50 [1, 12]: 88 ± 4 µM | EC50 [1, 13]: 84 ± 2 µM | EC50 [1, 14]: 77 ± 1 µM | EC50 [5, 15]: 31 ± 2 µM | EC50 [5, 16]: 42 ± 8 µM | EC50 [5, 17]: 23 ± 3 µM | Cellular accumulation [9]: 5 ng Pt/10^6 HCT116 cells
